The subject of data set [1] is diffuse cutaneous systemic sclerosis. The note with it: cited from earlier work.
In data set [2] the test system is diffuse scleroderma. As to the kind of experiment: clinical case: patient with diffuse scleroderma treated with chemotherapy. It is filed as in vivo, human. Particulars: methotrexate 7.5 mg to 10 mg per week for 5 years before admission. The text has this: A person was referred for fever and abdominal pain. Their medical history was mainly represented by a systemic scleroderma diagnosed 20 years before and with digestive, cutaneous and rheumatologic involvement. […] Blood test found anti topo-I antibodies to high level (141 IU/mL, normal range 0-29). […] The modified Rodnan score was 24/51.
Then, it was proposed to the patient 4 cycles of chemotherapy FOLFORINOX followed by rectal surgery.
The patient received 4 cycles of FOLFORINOX (oxaliplatine 85 mg/m^2, irinotecan 180 mg/m^2, 5-fluoro-uracil 400 mg/m^2 flash then 2400 mg/m^2 the following 46 hours). Cycles of chemotherapy were administered every 14 days on January 13 and 27, and February 11 and 25, 2014.
Then, the patient had surgery and according to post-surgical piece, it was realized 6 cycles of FOLFOX (folinic acid, oxaliplatine and 5-fluorouracil) with no new improvement during these last 6 cycles.

In data set [3] the test system is COL1A1 mRNA. Briefly: mRNA expression of fibrosis genes in dermal fibroblasts (qPCR): COL1A1. It is filed as cell-based. Particulars: Homo sapiens, Fibroblast, read-out: average inhibition of COL1A1 mRNA levels. Here is the method: (§1) Dermal fibroblasts were obtained from clinically affected skin of systemic sclerosis (SSC) patients and from healthy donors (H). The fibroblasts were grown in DMEM medium containing 2mM of L-glutamine supplemented with 10% foetal bovine serum (FCS) and penicillin/streptomycin antibiotics.
(§2) Dermal fibroblasts were plated in DMEM 10% FCS in 24-well plates. 24h before the experiment, medium was switched to DMEM 0% FCS. […] Supernatants were removed and plates were freezed at -80°c. Fibroblasts RNA from each well-plate were extracted with NucleoSpin® RNA Plus kit (Macherey-Nagel) according to manufacter's instructions. Triplicates were done and RNA from triplicates were pooled together. The quantity and quality of RNA were evaluated by capillary electrophoresis (Bioanalyzer 2100, Agilent).
(§3) RNA was used for cDNA synthesis using the Transcriptor Reverse Transcriptase kit (Roche). qPCR reactions were run on a Light Cycler (Roche Molecular Systems Inc.) according to manufacter's instructions. The relative gene expression levels of COL1A1, COL1A2, MMP1, TIMP1, CCL2 and ACTA2 were calculated using the ΔΔCt method. Target mRNA levels were normalized to GAPDH.
(§4) Expression of the genes in the different treated conditions was presented as fold change compared with the gene expression of the same non-treated fibroblasts arbitrary fixed at 100%.

The subject of data set [4] is COL1A2 mRNA. Briefly: mRNA expression of fibrosis genes in dermal fibroblasts (qPCR): COL1A2. The note with it: Homo sapiens, Fibroblast, read-out: average inhibition of COL1A2 mRNA levels. The data set is classed as cell-based. Here is the method:
as §1, §2, §3, §4

In data set [5] the test system is MMP1 mRNA. As to the kind of experiment: mRNA expression of fibrosis genes in dermal fibroblasts (qPCR): MMP1. It is filed as cell-based. Particulars: Homo sapiens, Fibroblast, read-out: average inhibition of MMP1 mRNA levels. Here is the method: as §1, §2, §3, §4
On the technique in general: Quantitative PCR measures a nucleic acid by following its amplification.

In data set [6] the test system is TIMP1 mRNA. Briefly: mRNA expression of fibrosis genes in dermal fibroblasts (qPCR): TIMP1. The data set is classed as cell-based. Particulars: Homo sapiens, Fibroblast, read-out: average inhibition of TIMP1 mRNA levels. Here is the method: as §1, §2, §3, §4
Data set [7] deals with CCL2 mRNA. As to the kind of experiment: mRNA expression of fibrosis genes in dermal fibroblasts (qPCR): CCL2. It is filed as cell-based. The note with it: Homo sapiens, Fibroblast, 24h, SSc and healthy fibroblasts, vs non-treated, read-out: average inhibition of CCL2 mRNA levels. The protocol:
as §1, §2, §3, §4

The test system of data set [8] is dermal fibroblasts. As to the kind of experiment: cytotoxicity on the fibroblasts (data not shown). The data set is classed as cell-based, human.
Data set [9] relates to procollagen I. Briefly: release of procollagen I protein by dermal fibroblasts (ELISA), dose response. It is filed as cell-based, human. The note with it: 48h, both cell types (SSC and healthy fibroblasts), vs non-treated. Here is the method:
as §1
Dermal fibroblasts were plated in DMEM 10% FCS supplemented with 20µg/mL of vitamin C in 96-well plates. 24h before the experiment, medium was switched to DMEM 0% FCS supplemented with 20µg/mL of vitamin C. […] Supernatants were collected to evaluate the procollagen I release level by ELISA kit (ref MK101, supplier Takara) according to manufacter's instructions. Triplicates were done. The level of procollagen I release was presented as fold change compared with the procollagen I release by the same non-treated fibroblasts arbitrary fixed at 100%.

The subject of data set [10] is procollagen I. As to the kind of experiment: effect of a combination of low SN38 and 5FU doses on procollagen I release (ELISA). The data set is classed as cell-based, human. Particulars: 5FU 1 µg/ml alone (condition B), 48h; patient SSC2, SSC3 or H2. A general note: ELISA stands for enzyme-linked immunosorbent assay.
Procedure: Dermal fibroblasts were plated in DMEM 10% FCS supplemented with 20µg/mL of vitamin C in 96-well plates. 24h before the experiment, medium was switched to DMEM 0% FCS supplemented with 20µg/mL of vitamin C. Cells were treated for 48h with SN38 (0.006 µg/mL), 5FU (1 µg/mL) or a combination (SN38 0.006 µg/mL and 5FU 1 µg/mL) in DMEM 0% FCS supplemented with 20µg/mL of vitamin C. Supernatants were collected to evaluate the procollagen I release level by ELISA kit (ref MK101, supplier Takara) according to manufacter's instructions. Triplicates were done. The level of procollagen I release was presented as fold change compared with the procollagen I release by the same non-treated fibroblasts arbitrary fixed at 100%.
In data set [11] the test system is idiopathic pulmonary fibrosis. Particulars: on one year, 72 week phase III trial; cited from earlier work.
The subject of data set [12] is ACTA2 mRNA. Briefly: mRNA expression of fibrosis genes in dermal fibroblasts (qPCR): ACTA2. The data set is classed as cell-based. Particulars: Homo sapiens, Fibroblast, read-out: average inhibition of ACTA2 mRNA levels. The protocol: as §1, §2, §3, §4
The mark [13] stands for this setting: control group (cyclophosphamide), share of patients.
[14] abbreviates: 5FU 384 µM (highest dose), 24h, SSc and healthy fibroblasts, vs non-treated.
Where [15] appears, read: all the doses used in the procollagen I release test (irinotecan 0.006-40 µg/ml, SN38 0.00006-0.6 µg/ml, 5FU 0.3-80 µg/ml).
The mark [16] stands for this setting: irinotecan 32 µM (highest dose), 24h, SSc and healthy fibroblasts, vs non-treated.

Like-named read-outs stand apart in the source and are kept apart here.

For `O=P1(N(CCCl)CCCl)NCCCO1` (stereo not shown) [cyclophosphamide], the “events, cumulative” value in [1] (control group (cyclophosphamide), at 2 years) is on record as 18.2%. The “events, cumulative” value in [1] (control group (cyclophosphamide), at 4 years) was 26%. Further, in [1] (control group (cyclophosphamide), during the first year, no treatment-related deaths), the events was 10.4%. Also, in [1] (setting [13]), the “Grade 3 or 4 adverse events” value was 37.0% and the Viral infections is listed as 1.3%. In data set [1] (control group (cyclophosphamide, n = 77), median follow-up of 5.8 years, 23 deaths and 8 irreversible organ failures), the “events (deaths and irreversible organ failures)” value was 31.
As for `CN(Cc1cnc2nc(N)nc(N)c2n1)c1ccc(C(=O)N[C@@H](CCC(=O)O)C(=O)O)cc1` [methotrexate], the “impact on scleroderma evolution” value in [2] is “without substantial impact”.
`O=c1[nH]cc(F)c(=O)[nH]1` [5FU, 5-Fluoro-1H,3H-pyrimidine-2,4-dione]: the inhibition (as a rule, how much of the control response was suppressed) at 384 µM came out at 17% in data set [3] (setting [14]); 12% in data set [4] (setting [14]); 37% in data set [5] (setting [14]); 15% in data set [6] (setting [14]); 31% in data set [7] (5FU 384 µM (highest dose)). The “cytotoxic on the fibroblasts” value in data set [8] (38.4 µM and 384 µM) was “not cytotoxic”; in data set [8] (setting [15]), “not cytotoxic”. Besides, the “release of procollagen I protein” value in data set [9] (80µg/mL) is given as “significantly decreased”. In addition, the “procollagen I release” value in [10] is “not observed”.
On to `Cc1ccc(=O)n(-c2ccccc2)c1` [Pirfenidone], for which the “reduce decline in lung function (forced vital capacity, FCV)” value in data set [11] is 4.4%.
As to `CCc1c2c(nc3ccc(O)cc13)-c1cc3c(c(=O)n1C2)COC(=O)[C@]3(O)CC` [SN38, 7-Ethyl-10-hydroxy-camptothecin], the inhibition at 1 µM in data set [3] (24 h) worked out at 57.5%; in data set [4] (24 h), 52%; in [5] (24 h) it was 42%; in data set [6] (24 h), 22%; in data set [12] (24 h), 55%. Besides, the “cytotoxic on the fibroblasts” value is listed as “not cytotoxic” in data set [8] (0.1 µM and 1 µM); “not cytotoxic” in [8] (setting [15]). For the same compound, the “release of procollagen I protein” value in [9] (0.3 µg/mL) and in data set [9] (0.6 µg/mL) was “significantly decreased” throughout.
`CCc1c2c(nc3ccc(OC(=O)N4CCC(N5CCCCC5)CC4)cc13)-c1cc3c(c(=O)n1C2)COC(=O)[C@]3(O)CC` [irinotecan, (S)-4,11-diethyl-3,4,12,14-tetrahydro-4-hydroxy-3,14-dioxo1H-pyrano[3',4':6,7]-indolizino[1,2-b]quinolin-9-yl-[1,4'bipiperidine]-1'-carboxylate]: the inhibition at 32 µM in data set [3] (setting [16]) was found to be 27%; in [4] (setting [16]), 22%; in data set [5] (setting [16]) it was 32%; in data set [7] (irinotecan 32 µM (highest dose)), 19%; in [12] (setting [16]), 33%. Moreover, the “cytotoxic on the fibroblasts” value is on record as “not cytotoxic” in [8] (3.2 µM and 32 µM); “not cytotoxic” in data set [8] (setting [15]). Besides, in data set [9] (40µg/mL), the “release of procollagen I protein” value is on record as “significantly decreased”.

The record behind these values is patent EP3300733A1, “SUBSTANCE SELECTED AMONG IRINOTECAN, AN IRINOTECAN ACTIVE METABOLITE, 5-FLUORO-URACILE, A PHARMACEUTICAL SALT THEREOF AND A MIXTURE THEREOF, FOR USE IN THE TREATMENT OF FIBROSIS” (Centre Hospitalier Universitaire de Bordeaux, priority 2016, dated 2018).
